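GI50 = concentration required for 50% inhibition of growth. The concentration for full growth arrest is given as TGI.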
Legend:
Assay in all cases: NCI anticancer screen, dose series, 384-well format
A498 renal = tested on: A498 renal
SNB-19 CNS = tested on: SNB-19 CNS
HS 578T breast = tested on: HS 578T breast
HOP-62 NSCLC = tested on: HOP-62 NSCLC
SF-539 CNS = tested on: SF-539 CNS
KM12 colon = tested on: KM12 colon
SF-268 CNS = tested on: SF-268 CNS
MDA-MB-435 melanoma = tested on: MDA-MB-435 melanoma
BT-549 breast = tested on: BT-549 breast
TK-10 renal = tested on: TK-10 renal
SW-620 colon = tested on: SW-620 colon
RPMI-8226 leukemia = tested on: RPMI-8226 leukemia
MDA-MB-231 breast = tested on: MDA-MB-231 breast
UACC-62 melanoma = tested on: UACC-62 melanoma
NCI-H226 lung = tested on: NCI-H226 lung
U251 glioblastoma = tested on: U251 glioblastoma
MDA-MB-468 breast = tested on: MDA-MB-468 breast
786-0 renal = tested on: 786-0 renal
ACHN renal = tested on: ACHN renal
OVCAR-8 ovarian = tested on: OVCAR-8 ovarian
MOLT-4 leukemia = tested on: MOLT-4 leukemia
SR leukemia = tested on: SR leukemia
SK-OV-3 ovarian = tested on: SK-OV-3 ovarian
NCI-H322M lung = tested on: NCI-H322M lung
EKVX NSCLC = tested on: EKVX NSCLC
DU-145 prostate = tested on: DU-145 prostate
SNB-75 CNS = tested on: SNB-75 CNS
HCT-116 colon = tested on: HCT-116 colon
UACC-257 melanoma = tested on: UACC-257 melanoma
MALME-3M melanoma = tested on: MALME-3M melanoma
UO-31 renal = tested on: UO-31 renal
OVCAR-4 ovarian = tested on: OVCAR-4 ovarian
MCF7 breast = tested on: MCF7 breast
IGROV1 ovarian = tested on: IGROV1 ovarian
NCI/ADR-RES ovarian = tested on: NCI/ADR-RES ovarian
SN12C renal = tested on: SN12C renal
LOX IMVI melanoma = tested on: LOX IMVI melanoma
HCT-15 colon = tested on: HCT-15 colon
PC-3 prostate = tested on: PC-3 prostate
SK-MEL-28 melanoma = tested on: SK-MEL-28 melanoma
A549 NSCLC = tested on: A549 NSCLC
NCI-H23 lung = tested on: NCI-H23 lung
M14 melanoma = tested on: M14 melanoma
COLO 205 colon = tested on: COLO 205 colon
K-562 leukemia = tested on: K-562 leukemia
SK-MEL-5 melanoma = tested on: SK-MEL-5 melanoma
CAKI-1 renal = tested on: CAKI-1 renal
HL-60(TB) leukemia = tested on: HL-60(TB) leukemia
SF-295 CNS = tested on: SF-295 CNS
T-47D breast = tested on: T-47D breast
OVCAR-3 ovarian = tested on: OVCAR-3 ovarian
HT29 colon = tested on: HT29 colon
HCC-2998 colon = tested on: HCC-2998 colon
NCI-H522 lung = tested on: NCI-H522 lung
RXF 393 renal = tested on: RXF 393 renal
HOP-92 NSCLC = tested on: HOP-92 NSCLC
NCI-H460 NSCLC = tested on: NCI-H460 NSCLC

Molecule `O=C(C1CC1)N1CC[C@@H](Cc2n[nH]c(=O)n2-c2ccc(-c3ccc4occc4c3)cc2)C1` has a GI50 (A498 renal) of 29.4 µM, a TGI (A498 renal) greater than 100 µM and a GI50 (SNB-19 CNS) of 50.1 µM. The TGI (SNB-19 CNS) was greater than 100 µM, the GI50 (HS 578T breast) was 32.5 µM and the TGI (HS 578T breast) was greater than 100 µM. It also gave a GI50 (HOP-62 NSCLC) of 19.1 µM, a TGI (HOP-62 NSCLC) of 75.7 µM and a GI50 (SF-539 CNS) of 53.5 µM. It also gave a TGI (SF-539 CNS) greater than 100 µM, a GI50 (KM12 colon) of 39.6 µM and a TGI (KM12 colon) greater than 100 µM. It also gave a GI50 (SF-268 CNS) of 26 µM, a TGI (SF-268 CNS) greater than 100 µM and a GI50 (MDA-MB-435 melanoma) of 31.2 µM. It also gave a TGI (MDA-MB-435 melanoma) greater than 100 µM, a GI50 (BT-549 breast) of 13.3 µM and a TGI (BT-549 breast) of 72.4 µM. For the same molecule, the GI50 (TK-10 renal) was 21.7 µM, the TGI (TK-10 renal) was 60.1 µM and the GI50 (SW-620 colon) was 57.6 µM. It also gave a TGI (SW-620 colon) greater than 100 µM, a GI50 (RPMI-8226 leukemia) of 0.066 µM and a TGI (RPMI-8226 leukemia) of 17.9 µM. It also gave a GI50 (MDA-MB-231 breast) of 39.6 µM, a TGI (MDA-MB-231 breast) greater than 100 µM and a GI50 (UACC-62 melanoma) of 34.2 µM. It also gave a TGI (UACC-62 melanoma) greater than 100 µM, a GI50 (NCI-H226 lung) of 18.5 µM and a TGI (NCI-H226 lung) of 58.8 µM. The GI50 (U251 glioblastoma) was 28 µM, the TGI (U251 glioblastoma) was greater than 100 µM and the GI50 (MDA-MB-468 breast) was 15.5 µM. The TGI (MDA-MB-468 breast) was 45.5 µM, the GI50 ([…]-0 renal) was 25.6 µM and the TGI (786-0 renal) was greater than 100 µM. The GI50 (ACHN renal) was 24.6 µM, the TGI (ACHN renal) was greater than 100 µM and the GI50 (OVCAR-8 ovarian) was 36.4 µM. It also gave a TGI (OVCAR-8 ovarian) greater than 100 µM, a GI50 (MOLT-4 leukemia) of 11.5 µM and a TGI (MOLT-4 leukemia) of 23.7 µM. For the same molecule, the GI50 (SR leukemia) was 24.6 µM, the TGI (SR leukemia) was 64.4 µM and the GI50 (SK-OV-3 ovarian) was 33.9 µM. The TGI (SK-OV-3 ovarian) was greater than 100 µM, the GI50 (NCI-H322M lung) was 36.2 µM and the TGI (NCI-H322M lung) was greater than 100 µM. For the same molecule, the GI50 (EKVX NSCLC) was 22.9 µM, the TGI (EKVX NSCLC) was greater than 100 µM and the GI50 (DU-145 prostate) was 35.3 µM. For the same molecule, the TGI (DU-145 prostate) was greater than 100 µM, the GI50 (SNB-75 CNS) was 34.8 µM and the TGI (SNB-75 CNS) was greater than 100 µM. For the same molecule, the GI50 (HCT-116 colon) was 20.2 µM, the TGI (HCT-116 colon) was 48 µM and the GI50 (UACC-257 melanoma) was 38.5 µM. It also gave a TGI (UACC-257 melanoma) of 91.3 µM, a GI50 (MALME-3M melanoma) of 30.9 µM and a TGI (MALME-3M melanoma) of 96.6 µM. It also gave a GI50 (UO-31 renal) of 14.9 µM, a TGI (UO-31 renal) greater than 100 µM and a GI50 (OVCAR-4 ovarian) of 33.3 µM. The TGI (OVCAR-4 ovarian) was greater than 100 µM, the GI50 (MCF7 breast) was 19.9 µM and the TGI (MCF7 breast) was 92.4 µM. For the same molecule, the GI50 (IGROV1 ovarian) was 34.3 µM, the TGI (IGROV1 ovarian) was greater than 100 µM and the GI50 (NCI/ADR-RES ovarian) was 22.3 µM. It also gave a TGI (NCI/ADR-RES ovarian) of 85.1 µM, a GI50 (SN12C renal) of 30 µM and a TGI (SN12C renal) greater than 100 µM. For the same molecule, the GI50 (LOX IMVI melanoma) was 16.9 µM, the TGI (LOX IMVI melanoma) was 38.6 µM and the GI50 (HCT-15 colon) was 34.3 µM. It also gave a TGI (HCT-15 colon) greater than 100 µM, a GI50 (PC-3 prostate) of 42.9 µM and a TGI (PC-3 prostate) greater than 100 µM. For the same molecule, the GI50 (SK-MEL-28 melanoma) was 31.1 µM, the TGI (SK-MEL-28 melanoma) was greater than 100 µM and the GI50 (A549 NSCLC) was 23.4 µM. The TGI (A549 NSCLC) was greater than 100 µM, the GI50 (NCI-H23 lung) was 29.6 µM and the TGI (NCI-H23 lung) was greater than 100 µM. For the same molecule, the GI50 (M14 melanoma) was 60.9 µM, the TGI (M14 melanoma) was greater than 100 µM and the GI50 (COLO 205 colon) was 42.2 µM. It also gave a TGI (COLO 205 colon) greater than 100 µM, a GI50 (K-562 leukemia) of 13.5 µM and a TGI (K-562 leukemia) of 27.2 µM. For the same molecule, the GI50 (SK-MEL-5 melanoma) was 15.7 µM, the TGI (SK-MEL-5 melanoma) was 29.6 µM and the GI50 (CAKI-1 renal) was 32.4 µM. For the same molecule, the TGI (CAKI-1 renal) was greater than 100 µM, the GI50 (HL-60(TB) leukemia) was 0.0567 µM and the TGI (HL-60(TB) leukemia) was 21.8 µM. The GI50 (SF-295 CNS) was 18.1 µM, the TGI (SF-295 CNS) was 57.5 µM and the GI50 (T-47D breast) was 29.8 µM. The TGI (T-47D breast) was greater than 100 µM, the GI50 (OVCAR-3 ovarian) was 21.6 µM and the TGI (OVCAR-3 ovarian) was 59 µM. The GI50 (HT29 colon) was 29.2 µM, the TGI (HT29 colon) was greater than 100 µM and the GI50 (HCC-2998 colon) was 25.5 µM. For the same molecule, the TGI (HCC-2998 colon) was greater than 100 µM, the GI50 (NCI-H522 lung) was 25.3 µM and the TGI (NCI-H522 lung) was 86.6 µM. It also gave a GI50 (RXF 393 renal) of 20.9 µM, a TGI (RXF 393 renal) of 59.4 µM and a GI50 (HOP-92 NSCLC) of 37.5 µM. For the same molecule, the TGI (HOP-92 NSCLC) was greater than 100 µM, the GI50 (NCI-H460 NSCLC) was 29.7 µM and the TGI (NCI-H460 NSCLC) was greater than 100 µM.

From PubChem BioAssay (NCI)
